# According to publication PMC7029660, “Functional Division Between the RecA1 and RecA2 Proteins in Myxococcus xanthus” (Frontiers in Microbiology, 2020):
# Molecular target: T1, RecA1 (Myxococcus xanthus, UniProt Q1DCC5)
# T1 construct: gene recA; full-length gene in pET15b, expressed in E. coli BL21(DE3), Ni-NTA purified
# T1 sequence (Q1DCC5 1-342): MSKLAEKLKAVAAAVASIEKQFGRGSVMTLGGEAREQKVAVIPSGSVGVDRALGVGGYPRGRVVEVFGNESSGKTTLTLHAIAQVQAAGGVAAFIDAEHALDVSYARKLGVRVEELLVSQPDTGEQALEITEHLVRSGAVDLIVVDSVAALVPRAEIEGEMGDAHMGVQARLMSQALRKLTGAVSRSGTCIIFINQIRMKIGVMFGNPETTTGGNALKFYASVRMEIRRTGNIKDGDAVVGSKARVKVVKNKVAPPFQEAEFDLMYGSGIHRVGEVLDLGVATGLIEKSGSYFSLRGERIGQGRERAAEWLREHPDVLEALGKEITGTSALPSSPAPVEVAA
# Assay: ATPase assay, released inorganic phosphate (kit)
# Type: biochemical
# Settings: 3 mM ATP, 5 mM MgCl2, 1 mM CaCl2, pH 7.4, 32 °C; with or without ssDNA or dsDNA
compound,measurement,value
Nc1ncnc2c1ncn2[C@@H]1O[C@H](COP(=O)(O)OP(=O)(O)OP(=O)(O)O)[C@@H](O)[C@H]1O [ATP],"ATPase assay, released inorganic phosphate (kit)",RecA1 and RecA2 both exhibited low ATPase activities
